Source: patent US20250339408A1, “TREATMENT AND PREVENTION OF BASAL CELL CARCINOMA WITH TOPICAL COMPOSITION COMPRISING PATIDEGIB” (Sol-Gel Technologies Ltd., priority 2023, published 2025)

System: basal cell carcinoma (BCC) lesions on the face
Experiment: Randomized, double-blind, vehicle-controlled study of Patidegib Topical Gel, 2% in Gorlin syndrome participants with PTCH1 mutation (Example 2)
Assay type: in vivo, human
Excerpt: The term “nSEB” refers to BCCs with a longest diameter of ≥5 mm that: • a. were not surgically eligible BCCs (SEBs) at baseline; • b. have grown by ≥2 mm in longest diameter from baseline; and • c. have been verified histologically.
The term “SEB” refers to surgically eligible BCCs with a longest diameter of ≥5 mm.
The term “resolved SEB lesions” refers to BCCs lesions which no longer requires a surgical removal treatment. In another embodiment the term “resolved SEB lesions” refers to BCCs lesions with a diameter <5 mm or the BCC lesions are completely disappeared.
A randomized, double-blind, stratified, vehicle-controlled study was done, measuring the efficacy and safety of Patidegib Topical Gel, 2%, applied topically twice daily to the face of adult participants with Gorlin syndrome. The Participants were required to apply the investigational product for 12 months. The primary endpoint is a comparison between the two treatment—Patidegib Topical Gel, 2%, versus Vehicle, resulted the of the number of new BCCs that develop over the 12 month period.
Participants will be randomized to receive Patidegib Topical Gel, 2%. The Patidegib Topical Gel, 2% will be dispensed to participants at each study visit and applied topically twice daily to the face.
Participants will be randomized to receive Vehicle. The Patidegib Topical Gel, Vehicle will be dispensed to participants at each study visit and applied topically twice daily to the face.
• 1. The participant must be age at least 18 years of age at the Screening Visit. • 2. The participant must provide written informed consent prior to any study procedures. • 3. The participant must meet diagnostic criteria for the basal cell nevus (Gorlin) syndrome including PTCH1 gene mutation, or at least 6 histologically confirmed facial BCC lesions at Baseline and PTCH1 gene mutation. • 4. The participant is willing to have blood collected to measure circulating drug levels. • 5. The participant is willing to abstain from application of a non-study topical medication (prescription or over the counter) to facial skin for the duration of the trial except as prescribed by the Investigator. Moisturizers and emollients are allowed. Participant will be encouraged to use their preferred sunscreen with a sun protector factor (SPF) of at least 30 daily on all exposed skin sites. • 6. If the participant is a woman of childbearing potential (WOCBP), they must be willing to use complete abstinence from sexual intercourse and/or they and their partner must be willing to use at least 2 highly-effective forms of birth control starting prior to Baseline, through the duration of the study, and for 12 months after last application of IP. • 7. If the participant is a male with a female sex partner who is a WOCBP, the participant must be willing to use condoms, even after a vasectomy, starting prior to Baseline, through the duration of the study, and for at least 8 months after the last application of IP. • 8. The participant is willing for all facial BCCs to be evaluated and treatment recommendations made only by the Investigator. • 9. The participant is willing to forego treatment of facial BCCs with anything other than the study IP except when the Investigator believes that delay of treatment of a facial BCC potentially might compromise the health of the subject. During the trial the only allowed form of treatment is surgical. Non-facial BCCs may be removed at the discretion of the Investigator or Primary Skin Care Physician (PSCP).
• 1. The subject has previously participated in a clinical trial evaluating patidegib topical gel. • 2. The participant has used topical treatment to the face or systemic therapies that might interfere with the evaluation of the study IP. Among these are use of the following: • a. 5-fluorouracil, imiquimod, diclofenac, or Ingenol mebutate (except as topical treatment to discrete non-facial BCCs) systemically or topically to the skin within the 2 months prior to the Screening Visit. • b. […]

[1] = PTCH1 mutation, baseline total facial BCC lesions at least 6, gel 2% twice daily to face, month 3
[2] = PTCH1 mutation, baseline total facial BCC lesions at least 6, gel 2% twice daily to face, month 6
[3] = PTCH1 mutation, baseline total facial BCC lesions at least 6, gel 2% twice daily to face, month 9
[4] = PTCH1 mutation, baseline total facial BCC lesions at least 6, gel 2% twice daily to face, month 12
[5] = PTCH1 mutation, baseline total facial BCC lesions at least 8, gel 2% twice daily to face, month 3
[6] = PTCH1 mutation, baseline total facial BCC lesions at least 8, gel 2% twice daily to face, month 6
[7] = PTCH1 mutation, baseline total facial BCC lesions at least 8, gel 2% twice daily to face, month 9
[8] = PTCH1 mutation, baseline total facial BCC lesions at least 8, gel 2% twice daily to face, month 12
[9] = PTCH1 mutation, baseline total facial BCC lesions at least 10, gel 2% twice daily to face, month 3
[10] = PTCH1 mutation, baseline total facial BCC lesions at least 10, gel 2% twice daily to face, month 6
[11] = PTCH1 mutation, baseline total facial BCC lesions at least 10, gel 2% twice daily to face, month 9
[12] = PTCH1 mutation, baseline total facial BCC lesions at least 10, gel 2% twice daily to face, month 12
[13] = PTCH1 mutation, gel 2% twice daily to face
[14] = PTCH1 mutation, gel 2% twice daily to face, month 3
[15] = PTCH1 mutation, gel 2% twice daily to face, month 6
[16] = PTCH1 mutation, gel 2% twice daily to face, month 9
[17] = PTCH1 mutation, gel 2% twice daily to face, month 12
[18] = per subject, PTCH1 mutation, by month 12
[19] = per subject, more than 6 BCC lesions at baseline, Baseline to month 12

Compound: CC1=C2C[C@H]3[C@@H](CC[C@@H]4C[C@H](NS(C)(=O)=O)CC[C@@]43C)[C@@H]2CC[C@@]2(C1)O[C@@H]1C[C@H](C)CN[C@H]1[C@H]2C [Patidegib]
- Overall efficacy in treating or preventing BCC lesions (in words) (Gorlin syndrome with genetic mutation PTCH1): effective in treating or preventing BCC lesions
- Number of qualifying nSEBs, observed, Mean (PTCH1 mutation, baseline total BCC facial lesions at least 6, gel 2% twice daily to face, month 3): 0.28
- Number of qualifying nSEBs, observed, Mean (PTCH1 mutation, baseline total BCC facial lesions at least 6, gel 2% twice daily to face, month 6): 0.42
- Number of qualifying nSEBs, observed, Mean (PTCH1 mutation, baseline total BCC facial lesions at least 6, gel 2% twice daily to face, month 9): 0.83
- Number of qualifying nSEBs, observed, Mean (PTCH1 mutation, baseline total BCC facial lesions at least 6, gel 2% twice daily to face, month 12): 0.47
- Number of new BCCs excluding no longer suspicious BCCs, observed, Mean [1]: 0.80
- Proportion of SEBs clinically resolved, observed, Mean [1]: 6.61
- Number of new BCCs excluding no longer suspicious BCCs, observed, Mean [2]: 1.68
- Proportion of SEBs clinically resolved, observed, Mean [2]: 3.11
- Number of new BCCs excluding no longer suspicious BCCs, observed, Mean [3]: 2.49
- Proportion of SEBs clinically resolved, observed, Mean [3]: 10.22
- Number of new BCCs excluding no longer suspicious BCCs, observed, Mean [4]: 2.78
- Proportion of SEBs clinically resolved, observed, Mean [4]: 18.79
- Number of new BCCs excluding no longer suspicious BCCs, observed, Mean [5]: 0.94
- Number of qualifying nSEBs, observed, Mean [5]: 0.31
- Proportion of SEBs clinically resolved, observed, Mean [5]: 5.98
- Number of new BCCs excluding no longer suspicious BCCs, observed, Mean [6]: 1.96
- Number of qualifying nSEBs, observed, Mean [6]: 0.52
- Proportion of SEBs clinically resolved, observed, Mean [6]: 1.30
- Number of new BCCs excluding no longer suspicious BCCs, observed, Mean [7]: 2.71
- Number of qualifying nSEBs, observed, Mean [7]: 0.96
- Proportion of SEBs clinically resolved, observed, Mean [7]: 8.73
- Number of new BCCs excluding no longer suspicious BCCs, observed, Mean [8]: 2.96
- Number of qualifying nSEBs, observed, Mean [8]: 0.52
- Proportion of SEBs clinically resolved, observed, Mean [8]: 12.84
- Number of new BCCs excluding no longer suspicious BCCs, observed, Mean [9]: 1.00
- Number of qualifying nSEBs, observed, Mean [9]: 0.41
- Proportion of SEBs clinically resolved, observed, Mean [9]: 8.50
- Number of new BCCs excluding no longer suspicious BCCs, observed, Mean [10]: 1.93
- Number of qualifying nSEBs, observed, Mean [10]: 0.64
- Proportion of SEBs clinically resolved, observed, Mean [10]: 2.05
- Number of new BCCs excluding no longer suspicious BCCs, observed, Mean [11]: 2.56
- Number of qualifying nSEBs, observed, Mean [11]: 1.00
- Proportion of SEBs clinically resolved, observed, Mean [11]: 13.39
- Number of new BCCs excluding no longer suspicious BCCs, observed, Mean [12]: 2.88
- Number of qualifying nSEBs, observed, Mean [12]: 0.56
- Proportion of SEBs clinically resolved, observed, Mean [12]: 16.89
- LS Mean for new BCCs per year (Std Err) [13]: 2.83
- Predicted new BCCs per year using observed covariates (95% CI) [13]: 3.09
- Number of new BCCs excluding no longer suspicious BCCs, observed, Mean [14]: 0.69
- Number of qualifying nSEBs, observed, Mean [14]: 0.21
- Proportion of SEBs clinically resolved, observed, Mean [14]: 5.42
- Number of new BCCs excluding no longer suspicious BCCs, observed, Mean [15]: 1.59
- Number of qualifying nSEBs, observed, Mean [15]: 0.38
- Proportion of SEBs clinically resolved, observed, Mean [15]: 2.76
- Number of new BCCs excluding no longer suspicious BCCs, observed, Mean [16]: 2.17
- Number of qualifying nSEBs, observed, Mean [16]: 0.70
- Proportion of SEBs clinically resolved, observed, Mean [16]: 8.11
- Number of new BCCs excluding no longer suspicious BCCs, observed, Mean [17]: 2.61
- Number of qualifying nSEBs, observed, Mean [17]: 0.50
- Proportion of SEBs clinically resolved, observed, Mean [17]: 14.68
- Total new BCCs (all subjects of the arm, PTCH1 mutation, by month 12): 114
- Total BCCs surgeries from Baseline to month 12 (all subjects of the arm, more than 6 BCC lesions at baseline): 14
- Rate-ratio: Patidegib/Vehicle (Std Err) (new BCCs per year, PTCH1 mutation): 0.91
- Number of new BCCs by Month 12 - Max [18]: 8
- Number of new BCCs by Month 12 - Median [18]: 2.0
- Number of new BCCs by Month 12 - Min [18]: 0
- Number of new BCCs by Month 12 - Q1 [18]: 1.0
- Number of new BCCs by Month 12 - Q3 [18]: 5.0
- Number of new BCCs by Month 12 - Mean (SD) (per subject, PTCH1 mutation, gel 2% twice daily to face, by month 12): 3.08
- Number of BCCs surgeries - Max [19]: 5
- Number of BCCs surgeries - Median [19]: 0.0
- Number of BCCs surgeries - Min [19]: 0
- Number of BCCs surgeries - Q1 [19]: 0
- Number of BCCs surgeries - Q3 [19]: 1
- Number of BCCs surgeries - Mean (SD) (per subject, more than 6 BCC lesions at baseline, Baseline to month 12, gel 2% twice daily to face): 0.6 (1.47)
